# Legend:
# [1] = tested on: Human umbilical vein endothelial cells (HUVECs); experiment: [3H]thymidine incorporation assay: VEGF-induced cell proliferation (DNA synthesis) of HUVECs; format: cell-based; conditions: VEGF 10 ng/mL; for activity on VEGF-induced cell proliferation of HUVECs compared with positive control YD-3: 1 μM
# Procedure: (§1) Human umbilical vein endothelial cells were incubated in the absence (basal and control) or presence of tested sample (YD-3, 10, 15, 17, 21, 25, 26) with 30 μM, and then vascular endothelial growth factor (VEGF) was added (except for basal) to induce DNA synthesis, which was detected using [^3H] thymidine incorporation assay.
# as §1, with “10” for “30”, “inducd” for “induce”, “assay. Means±S.E. (n=5) were presented.” for “assay.”
# as §1, with “1” for “30”, “inducd” for “induce”, “assay. Means±S.E. (n=5) were presented.” for “assay.”
# (§2) Human umbilical vein endothelial cells (HUVECS) were isolated according to the protocols from Jaffe et al. and obtained from human umbilical cord veins with collagenase and cultured in 75 cm^2 plastic flasks in M199 containing 20% FBS, 15 μg/mL endothelial cell growth supplements (ECGs). Confirmation of their identity as endothelial cells was provided by detection of CD31 (PECAM-1), assessed by immunostaining. Experiments were conducted on HUVECs that had used in passage 2 to 5.
# Confluent HUVECs were trypsinized, suspended in DMEM supplemented with 20% FBS, and seeded at 1.0×10^4 cells per well into 96-well plates. After 24 h, the cells were washed twice with PBS and starved with 2% FBS-M199 medium for 24 h. The cells were incubated with or without indicated reagents and growth factors (VEGF; 10 ng/mL) for 24 h and harvested. Before the harvest, cells were incubated with [^3H]thymidine (2 μCi/mL) for 4 h, harvested with Filter-Mate (Packard), and incorporated radioactivity was determined.
# The effect of tested compounds on VEGF-induced cell proliferation of HUVECs was assessed with the [^3H]thymidine incorporation assay, and the results were illustrated in FIG. 5-FIG. 7.
# [2] = tested on: Human umbilical vein endothelial cells (HUVECs); experiment: VEGF-induced tube formation of HUVECs on Matrigel; format: cell-based; conditions: FIG. 8; for blockage of VEGF-induced tube formation of HUVECs: Matrigel-coated chamberslide
# Procedure: FIG. 8 show photographs of the results of in vitro assay (inhibition of tube formation). Human umbilical vein endothelial cells were cultured onto chamberslide, which was precoated with Matrigel (10 mg/ml). Cells were treated without (basal and control) or with tested sample (YD-3, 10, 15, 17, 21, 25, 26) and then vascular endothelial growth factor (VEGF) was added to induce tube formation. All photographs were taken at 100×magnification.
# as §2
# [3] = tested on: VEGF-induced angiogenesis in Matrigel plug; experiment: In vivo Matrigel plug assay (neovascular formation, hemoglobin concentration); conditions: nude mice, FIG. 9; for anti-angiogenic activity in Matrigel plug assay (hemoglobin concentration): 150 ng/ml VEGF plug, oral, seven-day administration
# Procedure: Nude mice were subcutaneously injected with a Matrigel plug containing 150 ng/ml vascular endothelial growth factor (VEGF). Vehicle or tested sample (YD-3, 10, 15, 17, 21, 25, 26) was orally administered into the mice. After a seven-day administration, the animals were euthanized and the plugs were cut of the mice for the measurement of angiogenic effect using the hemoglobin concentration as the parameter by means of a hemoglobin detection kit (Sigma). Means±S.E. (n=3) were presented. Nude mice (6 weeks of age) were given s.c. injections of 500 μL of Matrigel (Becton Dickinson, Bedford, Mass.) at 4° C. with or without YC-1 and growth factor (150 ng/mL VEGF). After injection, the Matrigel rapidly formed a plug. After 7 days, the skin of the mouse was easily pulled back to expose the Matrigel plug, which remained intact. After quantitative differences were noted and photographed, hemoglobin was measured, as an indication of blood vessel formation, using the Drabkin method (Drabkin reagent kit 525, Sigma, St. Louis, Mo.). The concentration of hemoglobin was calculated from a known amount of hemoglobin assayed in parallel. The in vivo Matrigel plug assay was used in this study to determine quantitative the anti-angiogenic effect of tested compounds.
# angiogenesis = experiment: Evaluation for anti-angiogenic activities (overall summary); conditions: summary statement
# Procedure: 3-(4-Methylphenyl)-1H-indazole (10) and N^2-(substituted benzyl)-3-(4-methylphenyl)indazoles (15, 17, 21, 25, 26) were evaluated for anti-angiogenic activities.
# In this study, 3-(4-methylphenyl)-1H-indazole (10) and five of the above mentioned N^2-regioisomers, namely, compounds 15, 17, 21, 25 and 26 were selected for evaluating their effects on VEGF-induced cell proliferation, on VEGF-induced tube formation of HUVECs in vitro, and on neovascular formation in vivo.
compound,measurement,setting,value
"Cc1ccc(-c2nn(Cc3ccccc3Cl)c3ccccc23)cc1 [Compound 18, 1-(2-Chlorobenzyl)-3-(4-methylphenyl)-1H-indazole]",melting point,,77.6 to 78.8 °C
"CCOC(=O)c1ccc(-c2nn(Cc3ccccc3F)c3ccccc23)cc1 [Compound 31, Ethyl 4-[1-(2-fluorobenzyl)-1H-indazol-3-yl]benzoate]",melting point,,102 to 103 °C
"COC(=O)c1ccc(-c2nn(Cc3ccco3)c3ccccc23)cc1 [Compound 33, Methyl 4-[1-(2-furylmethyl)-1H-indazol-3-yl]benzoate]",melting point,,99 to 101 °C
"Cc1ccc(-c2c3ccccc3nn2Cc2ccccc2)cc1 [Compound 26, 2-Benzyl-3-(4-methylphenyl)-2H-indazole]",inhibitory effect on VEGF-induced cell proliferation of HUVECs ([3H]thymidine incorporation),"[1]; 10 μM, FIG. 6",significant inhibitory effect
same,inhibitory effect on VEGF-induced cell proliferation of HUVECs ([3H]thymidine incorporation),"[1]; 30 μM, FIG. 5",significant inhibitory effect
same,blockage of VEGF-induced tube formation of HUVECs,[2],significant blockage
same,anti-angiogenic activity in Matrigel plug assay (hemoglobin concentration),[3],significant anti-angiogenic activities
same,melting point,,110.7 to 111.3 °C
"CCOC(=O)c1ccc(-c2c3ccccc3nn2Cc2ccccc2F)cc1 [Compound 32, Ethyl 4-[2-(2-fluorobenzyl)-2H-indazol-3-yl]benzoate]",melting point,,94 to 96 °C
"OCc1ccc(-c2c3ccccc3nn2Cc2ccccc2)cc1 [Compound 39, [4-(2-Benzyl-2H-indazol-3-yl)phenyl]methanol]",melting point,,148 to 149 °C
"Cc1ccc(-c2nn(Cc3ccc(Cl)cc3)c3ccccc23)cc1 [Compound 14, 1-(4-Chlorobenzyl)-3-(4-methylphenyl)-1H-indazole]",melting point,,79.9 to 82.3 °C
"COc1ccc(Cn2nc3ccccc3c2-c2ccc(C)cc2)cc1 [Compound 25, 2-(4-Methoxylbenzyl)-3-(4-methylphenyl)-2H-indazole]",activity on VEGF-induced cell proliferation of HUVECs compared with positive control YD-3,[1],better activity than positive control YD-3
same,inhibitory effect on VEGF-induced cell proliferation of HUVECs ([3H]thymidine incorporation),"[1]; 10 μM, FIG. 6",significant inhibitory effect
same,inhibitory effect on VEGF-induced cell proliferation of HUVECs ([3H]thymidine incorporation),"[1]; 30 μM, FIG. 5",significant inhibitory effect
same,inhibitory activity on tube formation compared with other tested compounds and YD-3,[2],more potent than other tested compounds and YD-3
same,blockage of VEGF-induced tube formation of HUVECs,[2],significant blockage
same,anti-angiogenic activity in Matrigel plug assay (hemoglobin concentration),[3],significant anti-angiogenic activities
same,anti-angiogenic potency in Matrigel plug assay compared with positive control YD-3,[3],superior potency than the positive control YD-3
same,anti-angiogenic activity (overall),angiogenesis,significant anti-angiogenic activity
same,melting point,,113.6 to 115 °C
"O=C(O)c1ccc(-c2c3ccccc3nn2Cc2ccc(F)cc2)cc1 [Compound 36, 4-[2-(4-Fluorobenzyl)-2H-indazol-3-yl]benzoic acid]",melting point,,237 to 239 °C
"Cc1ccc(-c2c3ccccc3nn2Cc2ccc(Cl)cc2)cc1 [Compound 15, 2-(4-Chlorobenzyl)-3-(4-methylphenyl)-2H-indazole]",activity on VEGF-induced cell proliferation of HUVECs compared with positive control YD-3,[1],better activity than positive control YD-3
same,inhibitory effect on VEGF-induced cell proliferation of HUVECs ([3H]thymidine incorporation),"[1]; 10 μM, FIG. 6",significant inhibitory effect
same,inhibitory effect on VEGF-induced cell proliferation of HUVECs ([3H]thymidine incorporation),"[1]; 30 μM, FIG. 5",significant inhibitory effect
same,inhibitory activity on tube formation compared with other tested compounds and YD-3,[2],more potent than other tested compounds and YD-3
same,blockage of VEGF-induced tube formation of HUVECs,[2],significant blockage
same,anti-angiogenic activity in Matrigel plug assay (hemoglobin concentration),[3],significant anti-angiogenic activities
same,anti-angiogenic potency in Matrigel plug assay compared with positive control YD-3,[3],superior potency than the positive control YD-3
same,anti-angiogenic activity (overall),angiogenesis,significant anti-angiogenic activity
same,melting point,,107.4 to 109.5 °C
"OCc1ccc(-c2c3ccccc3nn2Cc2ccco2)cc1 [Compound 40, {4-[2-(2-Furylmethyl)-2H-indazol-3-yl]phenyl]methanol]",melting point,,129 to 130 °C
"COC(=O)c1ccc(-c2c3ccccc3nn2Cc2ccco2)cc1 [Compound 34, Methyl 4-[2-(2-furylmethyl)-2H-indazol-3-yl]benzoate]",melting point,,140 to 143 °C
"O=C(NO)c1ccc(-c2c3ccccc3nn2Cc2ccccc2)cc1 [Compound 38, 4-(2-Benzyl-2H-indazol-3-yl)-N-hydroxybenzamide]",melting point,,201 to 203 °C
"Cc1ccc(-c2c3ccccc3nn2Cc2ccccc2Cl)cc1 [Compound 19, 2-(2-Chlorobenzyl)-3-(4-methylphenyl)-2H-indazole]",melting point,,131.3 to 137.8 °C
"Cc1ccc(Cn2nc(-c3ccc(C)cc3)c3ccccc32)cc1 [Compound 20, 1-(4-Methylbenzyl)-3-(4-methylphenyl)-1H-indazole]",melting point,,79.6 to 82.3 °C
"COC(=O)c1ccc(-c2c3ccccc3nn2Cc2ccc(F)cc2)cc1 [Compound 30, Methyl 4-[2-(4-fluorobenzyl)-2H-indazol-3-yl]benzoate]",melting point,,121 to 122 °C
"Cc1ccc(-c2n[nH]c3ccccc23)cc1 [Compound 10, 3-(4-Methylphenyl)-1H-indazole]",inhibitory effect on VEGF-induced cell proliferation of HUVECs ([3H]thymidine incorporation),"[1]; 10 μM, FIG. 6",significant inhibitory effect
same,inhibitory effect on VEGF-induced cell proliferation of HUVECs ([3H]thymidine incorporation),"[1]; 30 μM, FIG. 5",significant inhibitory effect
same,melting point,,106 to 107 °C
"CCOC(=O)c1ccc(-c2n[nH]c3ccccc23)cc1 [Compound 11, Ethyl 4-(1H-indazol-3-yl)benzoate]",melting point,,133 to 135 °C
"CCOC(=O)c1ccc(-c2c3ccccc3nn2Cc2ccccc2)cc1 [Compound 28, Ethyl 4-(2-benzyl-2H-indazol-3-yl)benzoate]",melting point,,112 to 113 °C
"COC(=O)c1ccc(-c2nn(Cc3ccc(F)cc3)c3ccccc23)cc1 [Compound 29, Methyl 4-[1-(4-fluorobenzyl)-1H-indazol-3-yl]benzoate]",melting point,,118 to 120 °C
"O=C(O)c1ccc(-c2c3ccccc3nn2Cc2ccccc2)cc1 [Compound 35, 4-(2-Benzyl-2H-indazol-3-yl)benzoic acid]",melting point,,159 to 163 °C
"Cc1ccc(-c2nn(Cc3ccccc3C)c3ccccc23)cc1 [Compound 22, 1-(2-Methylbenzyl)-3-(4-methylphenyl)-1H-indazole]",melting point,,114.1 to 116.5 °C
"Cc1ccc(-c2c3ccccc3nn2Cc2cccc(Cl)c2)cc1 [Compound 17, 2-(3-Chlorobenzyl)-3-(4-methylphenyl)-2H-indazole]",inhibitory effect on VEGF-induced cell proliferation of HUVECs ([3H]thymidine incorporation),"[1]; 10 μM, FIG. 6",significant inhibitory effect
same,inhibitory effect on VEGF-induced cell proliferation of HUVECs ([3H]thymidine incorporation),"[1]; 30 μM, FIG. 5",significant inhibitory effect
same,blockage of VEGF-induced tube formation of HUVECs,[2],significant blockage
same,anti-angiogenic activity in Matrigel plug assay (hemoglobin concentration),[3],significant anti-angiogenic activities
same,melting point,,98 to 100 °C
"Cc1ccc(-c2nn(Cc3cccc(Cl)c3)c3ccccc23)cc1 [Compound 16, 1-(3-Chlorobenzyl)-3-(4-methylphenyl)-1H-indazole]",melting point,,66.6 to 68 °C
"Cc1ccc(-c2c3ccccc3nn2Cc2ccccc2C)cc1 [Compound 23, 2-(2-Methylbenzyl)-3-(4-methylphenyl)-2H-indazole]",melting point,,125 to 128.8 °C
